The values below come from PubChem BioAssay (NCI).

Among the test systems are 786-0 renal; CCRF-CEM leukemia; COLO 205 colon; K-562 leukemia; LOX IMVI melanoma; MCF7 breast; NCI-H23 lung; PC-3 prostate; SK-MEL-28 melanoma; SN12C renal.
Assay in all cases: NCI tumour cell line growth inhibition, 48 h

SMILES strings stand for the structures.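 96-well plates; 48 h exposure; 5 concentrations. Endpoints by linear interpolation between flanking doses. Not reached: highest tested concentration assigned. GI50 = concentration required for 50% inhibition of growth. TGI: concentration producing complete growth inhibition.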

Turning to `O=C1CCc2c(sc3[nH]c(=S)n(-c4cc(C(F)(F)F)cc(C(F)(F)F)c4)c(=O)c23)C1`, the GI50 with 786-0 renal was 0.602 µM; in the assay with CCRF-CEM leukemia, 349 nM; in the assay with COLO 205 colon it was 258 nM; with K-562 leukemia, 185 nM; with LOX IMVI melanoma, 392 nM; in the assay with MCF7 breast it was 447 nM. Also, the GI50 in the assay with NCI-H23 lung is 346 nM; in the assay on PC-3 prostate, 307 nM; with SK-MEL-28 melanoma it was 459 nM; with SN12C renal, 0.352 µM. Also, the TGI in the assay with 786-0 renal was 10.5 µM; with CCRF-CEM leukemia, 5.81 µM; in the assay with COLO 205 colon, 0.668 µM; in the assay with K-562 leukemia, over 73.1 µM; in the assay on LOX IMVI melanoma, 5.62 µM; in the assay on MCF7 breast, 16.4 µM. The TGI was determined as 2.24 µM in the assay with NCI-H23 lung, 2.35 µM in the assay with PC-3 prostate, 3.7 µM in the assay on SK-MEL-28 melanoma and 11.8 µM in the assay with SN12C renal.

Consider `COC(=O)c1cc(-c2ccccc2)[nH]c1N/N=C/c1c(Cl)cccc1Cl`, for which the GI50 in the assay on 786-0 renal is 0.41 µM; in the assay with CCRF-CEM leukemia, 348 nM; in the assay on COLO 205 colon it was 301 nM; in the assay with K-562 leukemia, 729 nM; with LOX IMVI melanoma it was 602 nM; in the assay with MCF7 breast, 266 nM. The GI50 was 438 nM with NCI-H23 lung, 410 nM in the assay on PC-3 prostate, 535 nM in the assay on SK-MEL-28 melanoma and 0.518 µM in the assay on SN12C renal. For the same compound, the TGI was 8.39 µM in the assay on 786-0 renal; 93 µM with CCRF-CEM leukemia; over 40.1 µM in the assay on COLO 205 colon; over 100 µM in the assay on K-562 leukemia; 17.7 µM in the assay with LOX IMVI melanoma; 4.85 µM with MCF7 breast. Also, the TGI in the assay with NCI-H23 lung was 15.4 µM; in the assay on SK-MEL-28 melanoma, 17.4 µM; with SN12C renal, over 36.6 µM.

In the case of `Nc1ccn(C2CC(F)C(CO)O2)c(=O)n1` (centres undefined), the GI50 in the assay with 786-0 renal was over 100 µM; in the assay with CCRF-CEM leukemia it was over 100000 nM; in the assay with COLO 205 colon it was over 100000 nM; with K-562 leukemia, over 100000 nM; in the assay with LOX IMVI melanoma, over 100000 nM; with MCF7 breast it was over 100000 nM. In addition, the GI50 in the assay with NCI-H23 lung is over 100000 nM; in the assay with PC-3 prostate, over 100000 nM; in the assay on SK-MEL-28 melanoma it was over 100000 nM; in the assay on SN12C renal, over 100 µM. The TGI in the assay on 786-0 renal, in the assay with CCRF-CEM leukemia, in the assay with COLO 205 colon, with K-562 leukemia, in the assay on LOX IMVI melanoma and in the assay with MCF7 breast was over 100 µM in each case. The TGI in the assay on NCI-H23 lung, in the assay on PC-3 prostate, in the assay with SK-MEL-28 melanoma and in the assay with SN12C renal was over 100 µM each time.

In the case of `Cc1cn2c(/C=C3/C(=O)Nc4c3ccc3ccccc43)c(C(F)(F)F)nc2s1`, the GI50 is 1.49 µM in the assay with 786-0 renal; 2330 nM in the assay with CCRF-CEM leukemia; 398 nM in the assay on COLO 205 colon; 483 nM in the assay with K-562 leukemia; 1070 nM with LOX IMVI melanoma; 449 nM with MCF7 breast. Also, the GI50 in the assay with NCI-H23 lung was 2090 nM; in the assay on PC-3 prostate, 1240 nM; in the assay on SK-MEL-28 melanoma, 2700 nM; in the assay on SN12C renal, 4.75 µM. Also, the TGI in the assay on 786-0 renal is 39 µM; in the assay with CCRF-CEM leukemia, 39.8 µM; in the assay with COLO 205 colon, 1.9 µM; with K-562 leukemia, 14.1 µM; with LOX IMVI melanoma, 21.1 µM; with MCF7 breast, over 100 µM. The TGI in the assay with NCI-H23 lung, with PC-3 prostate, in the assay with SK-MEL-28 melanoma and in the assay on SN12C renal was over 100 µM throughout.

`NC(=N\N=C/c1ccc(O)cc1)/C(N)=N\N=C/c1ccc(O)cc1`: the GI50 was 21.1 µM in the assay with 786-0 renal; 324 nM in the assay on CCRF-CEM leukemia; over 93500 nM in the assay on COLO 205 colon; 782 nM in the assay on K-562 leukemia; 435 nM in the assay with LOX IMVI melanoma; over 100000 nM in the assay with MCF7 breast. Also, the GI50 is over 100000 nM in the assay with NCI-H23 lung, over 29000 nM in the assay on PC-3 prostate, over 100000 nM in the assay on SK-MEL-28 melanoma and over 31 µM with SN12C renal. Besides, the TGI with 786-0 renal, with CCRF-CEM leukemia, with COLO 205 colon, with K-562 leukemia, in the assay with LOX IMVI melanoma and with MCF7 breast was over 100 µM throughout. Also, the TGI in the assay on NCI-H23 lung, in the assay with PC-3 prostate, in the assay on SK-MEL-28 melanoma and in the assay on SN12C renal was over 100 µM each time.

Consider `CCCCNNC(=O)c1ccc(Br)cc1`, for which the GI50 was 11.8 µM in the assay on 786-0 renal; 2460 nM in the assay on CCRF-CEM leukemia; 2210 nM with COLO 205 colon; 2020 nM in the assay with K-562 leukemia; 3290 nM in the assay with LOX IMVI melanoma; 2060 nM in the assay with MCF7 breast. The GI50 with NCI-H23 lung was 6770 nM; in the assay with PC-3 prostate, 4120 nM; in the assay on SK-MEL-28 melanoma, 1550 nM; in the assay with SN12C renal, 15.4 µM. Further, the TGI was over 50 µM with 786-0 renal; over 50 µM in the assay on CCRF-CEM leukemia; 9.92 µM with COLO 205 colon; over 50 µM with K-562 leukemia; 12.2 µM in the assay with LOX IMVI melanoma; over 50 µM with MCF7 breast. Moreover, the TGI with NCI-H23 lung is over 50 µM; with PC-3 prostate, over 50 µM; with SK-MEL-28 melanoma, over 35.3 µM; in the assay on SN12C renal it was over 50 µM.

As to `O=[N+]([O-])c1ccc(NN=C2CN3CCN(C2)c2ccccc23)c([N+](=O)[O-])c1`, the TGI in the assay on 786-0 renal, in the assay with CCRF-CEM leukemia, with COLO 205 colon, with K-562 leukemia, in the assay on LOX IMVI melanoma and with MCF7 breast was over 100 µM each time. Also, the TGI in the assay with NCI-H23 lung, in the assay with PC-3 prostate, with SK-MEL-28 melanoma and in the assay on SN12C renal was over 100 µM throughout.

On to `[2H]C([2H])([2H])NC(=O)c1nnc(NC(=O)C2CC2)cc1Nc1cccc(-c2ncn(C)n2)c1OC`, for which the GI50 is 28.4 µM in the assay on 786-0 renal; 19800 nM with CCRF-CEM leukemia; 97100 nM with COLO 205 colon; 31200 nM with K-562 leukemia; 14500 nM with LOX IMVI melanoma; 92900 nM with MCF7 breast. In addition, the GI50 was 91900 nM in the assay on NCI-H23 lung, 29500 nM with PC-3 prostate, over 100000 nM in the assay on SK-MEL-28 melanoma and 34.5 µM in the assay on SN12C renal. Besides, the TGI in the assay on 786-0 renal, in the assay with CCRF-CEM leukemia, in the assay on COLO 205 colon, in the assay on K-562 leukemia, with LOX IMVI melanoma and with MCF7 breast was over 100 µM in each case. Also, the TGI in the assay on NCI-H23 lung, in the assay on PC-3 prostate, with SK-MEL-28 melanoma and with SN12C renal was over 100 µM in each case.

On to `CN(C)c1ccc(Nc2c3ccccc3nc3ccccc23)cc1`, for which the GI50 in the assay on 786-0 renal was 1.29 µM; with CCRF-CEM leukemia, 1230 nM; in the assay on COLO 205 colon, 820 nM; in the assay on K-562 leukemia, 847 nM; in the assay on LOX IMVI melanoma it was 585 nM; in the assay on MCF7 breast, 471 nM. Further, the GI50 in the assay with NCI-H23 lung is 1100 nM; in the assay with PC-3 prostate, 1340 nM; in the assay on SK-MEL-28 melanoma, 1360 nM; in the assay with SN12C renal, 1.03 µM. The TGI with 786-0 renal came to 3.13 µM; in the assay with CCRF-CEM leukemia it was 15.7 µM; with COLO 205 colon it was 2.16 µM; in the assay on K-562 leukemia, 7.83 µM; with LOX IMVI melanoma, 2.26 µM; with MCF7 breast, 3.44 µM. The TGI turned out to be 2.92 µM in the assay on NCI-H23 lung, 5.41 µM in the assay with PC-3 prostate, 2.84 µM in the assay on SK-MEL-28 melanoma and 6.76 µM in the assay on SN12C renal.

Turning to `c1ccc(-c2nn3c(c2-c2ccnc4cc(OCCN5CCOCC5)ccc24)CCC3)nc1`, the GI50 with 786-0 renal was over 100 µM; in the assay with CCRF-CEM leukemia it was over 95900 nM; in the assay with COLO 205 colon it was 41600 nM; with K-562 leukemia it was 30300 nM; with LOX IMVI melanoma, over 45600 nM; in the assay with MCF7 breast, 12900 nM. Besides, the GI50 was over 80600 nM in the assay on NCI-H23 lung, 98800 nM in the assay with PC-3 prostate, over 100000 nM with SK-MEL-28 melanoma and 50.4 µM with SN12C renal. In addition, the TGI in the assay on 786-0 renal, in the assay on CCRF-CEM leukemia, in the assay on COLO 205 colon, in the assay on K-562 leukemia, with LOX IMVI melanoma and in the assay with MCF7 breast was over 100 µM in each case. For the same compound, the TGI with NCI-H23 lung, in the assay with PC-3 prostate, with SK-MEL-28 melanoma and with SN12C renal was over 100 µM throughout.

For the compound `OC1(c2ccccc2)C2CC=CC2C1(c1ccccc1)c1ccccc1` (centres undefined), the TGI was over 100 µM with 786-0 renal; over 100 µM with CCRF-CEM leukemia; 44.6 µM in the assay on COLO 205 colon; over 100 µM with K-562 leukemia; 37.9 µM with LOX IMVI melanoma; 79.4 µM in the assay with MCF7 breast. The TGI with NCI-H23 lung, in the assay on PC-3 prostate, with SK-MEL-28 melanoma and in the assay with SN12C renal was over 100 µM throughout.
